Results published in US20260226048A1, “MULTI-CYCLIC IRAK AND FLT3 INHIBITING COMPOUNDS AND USES THEREOF” (CHILDREN'S HOSPITAL MEDICAL CENTER, priority 2023, published 2026).
Read-outs that look alike come from different tables or passages of the source.

What was measured:
FLT3 = molecular target: T1, FLT3 (Homo sapiens, UniProt P36888); assay: RBC HotSpot Kinase Assay, FLT3; type: biochemical; parameters: purchased Reaction Biology (RBC HotSpot); conditions: isolated kinase enzyme, 33P-ATP, P81 filter-binding
T1 sequence (P36888 27-993): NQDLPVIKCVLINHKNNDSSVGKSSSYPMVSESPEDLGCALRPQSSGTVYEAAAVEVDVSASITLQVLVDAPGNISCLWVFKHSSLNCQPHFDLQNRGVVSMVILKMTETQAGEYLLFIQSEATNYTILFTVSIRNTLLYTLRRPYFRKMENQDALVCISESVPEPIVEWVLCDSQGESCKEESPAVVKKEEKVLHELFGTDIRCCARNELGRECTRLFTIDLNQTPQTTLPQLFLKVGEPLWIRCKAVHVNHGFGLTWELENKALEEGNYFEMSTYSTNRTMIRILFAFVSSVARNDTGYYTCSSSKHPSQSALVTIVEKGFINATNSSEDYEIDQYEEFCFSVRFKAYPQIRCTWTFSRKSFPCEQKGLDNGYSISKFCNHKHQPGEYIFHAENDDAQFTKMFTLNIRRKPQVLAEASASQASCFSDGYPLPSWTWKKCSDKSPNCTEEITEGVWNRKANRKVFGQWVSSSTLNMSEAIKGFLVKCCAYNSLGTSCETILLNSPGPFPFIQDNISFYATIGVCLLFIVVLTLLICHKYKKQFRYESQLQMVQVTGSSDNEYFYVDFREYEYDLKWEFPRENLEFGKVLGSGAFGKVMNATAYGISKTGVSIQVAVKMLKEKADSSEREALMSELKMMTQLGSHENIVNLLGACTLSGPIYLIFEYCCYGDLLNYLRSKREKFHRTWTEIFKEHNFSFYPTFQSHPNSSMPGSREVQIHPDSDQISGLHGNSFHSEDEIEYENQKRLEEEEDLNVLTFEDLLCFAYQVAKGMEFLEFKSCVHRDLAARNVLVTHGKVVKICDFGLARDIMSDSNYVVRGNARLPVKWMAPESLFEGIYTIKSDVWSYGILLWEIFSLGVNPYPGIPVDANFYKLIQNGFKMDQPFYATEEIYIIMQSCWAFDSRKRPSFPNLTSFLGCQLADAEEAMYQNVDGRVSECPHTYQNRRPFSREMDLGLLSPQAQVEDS
Description: (§1) This assay uses the isolated kinase enzyme. […] Unlike kinase binding assays that measure competition for ATP, the HotSpot Kinase Assay is a functional assay that measures catalytic activity; as such it measures relative functional potency regardless of the mechanism of enzyme inhibition. This assay uses the form of the various enzymes that are easiest to express, which may not necessarily be the form of the enzyme that exist in the cell. (Sometimes the carboxy terminus has been truncated to aid in expression, or, if it is a receptor kinase, the enzyme itself is isolated from the other parts of the receptor that are involved in regulating kinase activity.)
(§2) The reagent used was as follows: Base Reaction buffer; 20 mM Hepes (pH 7.5), 10 mM MgCl2, 1 mM EGTA, 0.01% Brij35, 0.02 mg/ml BSA, 0.1 mM Na3VO4, 2 mM DTT, 1% DMSO. Required cofactors were added individually to each kinase reaction.

IRAK1 = molecular target: T2, IRAK1 (Homo sapiens, UniProt P51617); assay: RBC HotSpot Kinase Assay, IRAK1; type: biochemical; conditions: isolated kinase enzyme, 33P-ATP, P81 filter-binding
T2 construct: purchased Reaction Biology (RBC HotSpot)
T2 sequence (P51617 whole entry): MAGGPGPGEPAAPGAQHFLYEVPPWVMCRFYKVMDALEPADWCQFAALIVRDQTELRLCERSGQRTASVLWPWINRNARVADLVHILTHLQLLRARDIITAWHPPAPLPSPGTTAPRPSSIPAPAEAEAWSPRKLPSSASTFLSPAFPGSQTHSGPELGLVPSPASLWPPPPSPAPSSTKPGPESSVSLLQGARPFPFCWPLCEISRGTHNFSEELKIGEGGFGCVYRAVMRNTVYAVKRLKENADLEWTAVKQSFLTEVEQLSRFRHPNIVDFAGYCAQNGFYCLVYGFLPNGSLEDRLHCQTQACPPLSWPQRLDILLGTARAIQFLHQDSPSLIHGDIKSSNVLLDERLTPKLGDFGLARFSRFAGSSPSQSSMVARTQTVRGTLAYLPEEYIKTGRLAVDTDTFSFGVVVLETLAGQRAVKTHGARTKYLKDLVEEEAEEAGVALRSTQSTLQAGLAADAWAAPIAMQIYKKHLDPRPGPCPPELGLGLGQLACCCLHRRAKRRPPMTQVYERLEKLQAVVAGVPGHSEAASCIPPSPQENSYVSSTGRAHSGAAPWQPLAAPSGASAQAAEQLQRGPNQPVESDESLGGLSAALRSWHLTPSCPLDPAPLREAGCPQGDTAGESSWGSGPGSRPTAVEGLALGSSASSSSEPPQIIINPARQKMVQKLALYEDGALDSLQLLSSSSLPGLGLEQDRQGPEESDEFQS
Description: as §1, §2

IRAK4 = molecular target: T3, IRAK4 (Homo sapiens, UniProt Q9NWZ3); assay: RBC HotSpot Kinase Assay, IRAK4; type: biochemical; parameters: purchased Reaction Biology (RBC HotSpot); conditions: isolated kinase enzyme, 33P-ATP, P81 filter-binding
T3 sequence (Q9NWZ3 1-460): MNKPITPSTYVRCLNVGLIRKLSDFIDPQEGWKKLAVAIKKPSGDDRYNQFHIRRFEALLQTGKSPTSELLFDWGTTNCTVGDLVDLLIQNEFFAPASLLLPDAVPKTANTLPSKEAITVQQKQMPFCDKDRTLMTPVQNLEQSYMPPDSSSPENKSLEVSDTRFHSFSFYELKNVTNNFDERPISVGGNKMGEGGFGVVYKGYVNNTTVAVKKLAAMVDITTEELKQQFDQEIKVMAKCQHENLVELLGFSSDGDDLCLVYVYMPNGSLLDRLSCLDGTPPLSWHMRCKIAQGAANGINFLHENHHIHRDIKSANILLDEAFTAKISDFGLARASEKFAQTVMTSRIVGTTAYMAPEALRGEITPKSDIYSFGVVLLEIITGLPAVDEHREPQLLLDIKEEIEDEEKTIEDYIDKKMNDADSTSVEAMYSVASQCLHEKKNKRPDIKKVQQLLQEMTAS
Description: as §1, with “enzyme. This assay is very useful for determining competition of the inhibitor for ATP and/or substrates and for measuring the kinetics of enzyme inhibition.” for “enzyme.”
as §2
The reaction procedure was as follows: • 1) Substrates were prepared in freshly prepared Reaction Buffer. • 2) Any required cofactors were delivered to the substrate solution above. • 3) Kinase was delivered into the substrate solution and gently mixed. • 4) Compounds were delivered in 1000A DM into the kinase reaction mixture by Acoustic technology (Echo550; nanoliter range), followed by incubation for 20 min at room temp. • 5) 33P-ATP was delivered into the reaction mixture to initiate the reaction. • 6) The mixture was incubated for 2 hours at room temperature. • 7) Kinase activity was detected by P81 filter-binding method.

MOLM14 D835Y cells = assay: MOLM14 D835Y cell viability assay (Cell Titer Glo); type: cell-based; conditions: cell viability, Cell Titer Glo, 48 hours, read-out: MOLM14 D835Y IC50
Experimental: Both cell lines have activated FLT3 receptors, each of which carry additional resistance mutations in the kinase domain (D835Y and F691L, respectively).
For viability/cytotoxicity assessments, cells were seeded into 1536-well white polystyrene tissue culture-treated Greiner plates using a Multidrop Combi dispenser (ThermoFisher), in final volume 5 μL of growth media per well, at a density of 1000 cells per well. […] Plates were incubated for 48 hours at standard incubator conditions covered by a stainless steel gasketed lid to prevent evaporation. 48 hours post compound addition, 3 μL of Cell Titer Glo (Promega) were added to each well and plates were incubated at room temperature for 15 minutes with the stainless-steel lid in place. Luminescence readings were taken using a Viewlux imager (PerkinElmer) with a 2 second exposure time per plate.

| SMILES | IC50 (FLT3) [nM] | IC50 (IRAK1) [nM] | IC50 (IRAK4) [nM] | IC50 (MOLM14 D835Y cells; Homo sapiens, MOLM-14, 48 h) [nM] | IC50 (MOLM14 D835Y cells) [nM] |
| --- | --- | --- | --- | --- | --- |
| CC(O)(c1ccc2ncc(-c3ccnc(N[C@H]4CNC[C@@H]4F)n3)n2c1)C(F)(F)F (single isomer, unassigned) [Compound 24a] | < 0.5 | 16 | 0.9 | 41 | – |
| CC(O)(c1ccc2ncc(-c3ccnc(N[C@H]4CNC[C@@H]4F)n3)n2c1)C(F)(F)F (single isomer, unassigned) [Compound 26a] | < 0.5 | 5 | < 0.5 | – | 23 |
| CC(O)(c1ccc2ncc(-c3cncc(N[C@@H]4CCCNC4)n3)n2c1)C(F)(F)F (single isomer, unassigned) [Compound 29a] | 1 | 27 | 0.8 | – | 106 |
| CC(O)(c1ccc2ncc(-c3cncc(N[C@H]4CNC[C@@H]4F)n3)n2c1)C(F)(F)F (single isomer, unassigned) [Compound 30a] | 2 | 108 | 5 | 576 | – |
| CC(O)(c1ccc2ncc(-c3cncc(N[C@H]4CNC[C@@H]4F)n3)n2c1)C(F)(F)F (single isomer, unassigned) [Compound 32a] | 2 | 53 | 1 | – | 408 |
| CC(O)(c1ccc2ncc(-c3cncc(N[C@H]4CNCC[C@@H]4F)n3)n2c1)C(F)(F)F (single isomer, unassigned) [Compound 33a] | 0.7 | 9 | 0.8 | – | 65 |
| CC(O)(c1ccc2ncc(-c3nc(N[C@H]4CNC[C@@H]4F)ncc3F)n2c1)C(F)(F)F (single isomer, unassigned) [Compound 36a] | < 0.5 | 4 | 2 | 41 | – |
| CC(O)(c1ccc2ncc(-c3nc(N[C@H]4CNC[C@@H]4F)ncc3F)n2c1)C(F)(F)F (single isomer, unassigned) [Compound 38a] | < 0.5 | 1 | 0.6 | – | 51 |
| CC(O)(c1ccc2ncc(-c3nc(N[C@@H]4CCCNC4)ncc3F)n2c1)C(F)(F)F (single isomer, unassigned) [Compound 39a] | < 0.5 | 2 | 1 | – | 32 |
| CC(O)(c1cn2c(-c3nc(N[C@@H]4CCCNC4)ncc3F)cnc2cn1)C(F)(F)F (single isomer, unassigned) [Compound 131a] | 2 | 15 | 28 | – | – |
| CC(O)(c1cn2c(-c3nc(N[C@@H]4CCCNC4)ncc3F)cnc2cn1)C(F)(F)F (single isomer, unassigned) [Compound 132a] | < 0.5 | 3 | 2 | – | – |
| CC(O)(c1cn2c(-c3nc(N[C@H]4CNCC[C@@H]4F)ncc3F)cnc2cn1)C(F)(F)F (single isomer, unassigned) [Compound 133a] | 1 | 15 | 15 | – | – |
| CC(O)(c1cn2c(-c3nc(N[C@H]4CNCC[C@@H]4F)ncc3F)cnc2cn1)C(F)(F)F (single isomer, unassigned) [Compound 134a] | < 0.5 | 2 | 1 | – | – |
| COc1cc2ncc(-c3nc(N[C@H]4CNC[C@@H]4F)ncc3F)n2nc1C1CC1 [Compound 2a, 4-(6-cyclopropyl-7-methoxyimidazo[1,2-b]pyridazin-3-yl)-5-fluoro-N-((3S,4S)-4-fluoropyrrolidin-3-yl)pyrimidin-2-amine] | < 0.5 | 1 | 0.7 | 4 | – |
| FC(F)COc1cc2ncc(-c3ccnc(N[C@H]4CNC[C@@H]4F)n3)n2nc1C1CC1 [Compound 5a, 4-(6-cyclopropyl-7-(2,2-difluoroethoxy)imidazo[1,2-b]pyridazin-3-yl)-N-((3S,4S)-4-fluoropyrrolidin-3-yl)pyrimidin-2-amine] | < 0.5 | 29 | 0.9 | 29 | – |
| FC(F)COc1cc2ncc(-c3ccnc(N[C@@H]4CCCNC4)n3)n2nc1C1CC1 [Compound 6a, (R)-4-(6-cyclopropyl-7-(2,2-difluoroethoxy)imidazo[1,2-b]pyridazin-3-yl)-N-(piperidin-3-yl)pyrimidin-2-amine] | < 0.5 | 133 | 3 | 9 | – |
| COc1cc2ncc(-c3nc(N[C@H]4CNCC[C@@H]4F)ncc3F)n2nc1C1(C)COC1 [Compound 70a, 5-fluoro-N-((3S,4S)-4-fluoropiperidin-3-yl)-4-(7-methoxy-6-(3-methyloxetan-3-yl)imidazo[1,2-b]pyridazin-3-yl)pyrimidin-2-amine] | < 0.5 | 3 | < 0.5 | – | – |
| [2H]C([2H])([2H])Oc1cc2ncc(-c3ccnc(N[C@H]4CNCC[C@@H]4F)n3)n2nc1C1CC1 [Compound 128a, 4-(6-cyclopropyl-7-(methoxy-d3)imidazo[1,2-b]pyridazin-3-yl)-N-((3S,4S)-4-fluoropiperidin-3-yl)pyrimidin-2-amine] | < 0.5 | 24 | 0.7 | – | – |
| [2H]C([2H])([2H])Oc1cc2ncc(-c3ccnc(N[C@@H]4CCCNC4)n3)n2nc1C1CC1 [Compound 129a, (R)-4-(6-cyclopropyl-7-(methoxy-d3)imidazo[1,2-b]pyridazin-3-yl)-N-(piperidin-3-yl)pyrimidin-2-amine] | < 0.5 | 86 | 2 | – | – |
